# Key:
# [1] = Cytotoxicity against human MT4 cells assessed as reduction in cell viability by MTT assay; assay type: toxicity, cell-based
# [2] = Selectivity index, ratio of CC50 for human MT4 cells to EC50 for antiviral activity against HIV IIIB
# [3] = Selectivity index, ratio of CC50 for human MT4 cells to EC50 for antiviral activity against HIV RES056
# [4] = test system: Human immunodeficiency virus 1; test: Potency index, ratio of zidovudine EC50 to test compound EC50 for antiviral activity against HIV1 IIIB; assay type: functional
# [5] = test system: Human immunodeficiency virus 1; test: Potency index, ratio of (E)-3-[3,5-dimethyl-4-[2-[4-[(4-methylsulfonylpiperazin-1-yl)methyl]anilino]pyrimidin-4-yl]oxy-phenyl]prop-2-enenitrile EC50 to test compound EC50 for antiviral activity against HIV1 IIIB; assay type: functional
# [6] = test system: Human immunodeficiency virus 1; test: Potency index, ratio of nevirapine EC50 to test compound EC50 for antiviral activity against HIV1 IIIB; assay type: functional
# [7] = test system: Human immunodeficiency virus 1; test: Potency index, ratio of etravirine EC50 to test compound EC50 for antiviral activity against HIV1 IIIB; assay type: functional
# [8] = test system: Human immunodeficiency virus 1; test: Potency index, ratio of efavirenz EC50 to test compound EC50 for antiviral activity against HIV1 IIIB; assay type: functional
# [9] = test system: Human immunodeficiency virus 1; test: Antiviral activity against HIV1 harboring L100I mutant infected in MT4 cells; assay type: functional, organism-based; conditions: Human immunodeficiency virus 1, MT4
# [10] = test system: Human immunodeficiency virus 1; test: Antiviral activity against HIV1 harboring K103N mutant infected in MT4 cells; assay type: functional, organism-based; conditions: Human immunodeficiency virus 1, MT4
# [11] = test system: Human immunodeficiency virus 1; test: Antiviral activity against HIV1 harboring Y181C mutant infected in MT4 cells; assay type: functional, organism-based; conditions: Human immunodeficiency virus 1, MT4
# [12] = test system: Human immunodeficiency virus 1; test: Antiviral activity against HIV1 harboring Y188L mutant infected in MT4 cells; assay type: functional, organism-based; conditions: Human immunodeficiency virus 1, MT4
# [13] = test system: Human immunodeficiency virus 1; test: Antiviral activity against HIV1 harboring E138K mutant infected in MT4 cells; assay type: functional, organism-based; conditions: Human immunodeficiency virus 1, MT4
# [14] = test system: Human immunodeficiency virus 1; test: Antiviral activity against HIV1 harboring F227L/V106A double mutant infected in MT4 cells; assay type: functional, organism-based; conditions: Human immunodeficiency virus 1, MT4
# [15] = target: Human immunodeficiency virus type 1 reverse transcriptase (Human immunodeficiency virus 1, UniProt Q72547); test: Inhibition of wild type HIV-1 reverse transcriptase
# Cytochrome P450 1A2 = target: T1, Cytochrome P450 1A2 (Homo sapiens, UniProt P05177); test: Inhibition of CYP1A2 (unknown origin); assay type: ADME
# T1 sequence (P05177 whole entry): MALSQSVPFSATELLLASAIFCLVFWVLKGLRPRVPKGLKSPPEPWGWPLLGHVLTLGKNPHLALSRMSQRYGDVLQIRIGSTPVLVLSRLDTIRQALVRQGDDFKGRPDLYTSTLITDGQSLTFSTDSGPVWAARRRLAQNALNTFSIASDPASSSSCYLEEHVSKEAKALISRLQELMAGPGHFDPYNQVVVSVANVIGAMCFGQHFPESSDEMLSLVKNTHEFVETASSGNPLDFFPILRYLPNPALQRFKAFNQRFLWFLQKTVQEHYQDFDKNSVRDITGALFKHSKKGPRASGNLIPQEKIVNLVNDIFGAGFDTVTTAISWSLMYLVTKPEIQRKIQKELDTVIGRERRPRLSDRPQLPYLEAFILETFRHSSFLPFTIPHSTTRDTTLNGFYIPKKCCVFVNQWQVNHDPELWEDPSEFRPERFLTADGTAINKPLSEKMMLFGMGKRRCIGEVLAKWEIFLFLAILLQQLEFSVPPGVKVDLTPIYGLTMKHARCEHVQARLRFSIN
# Cytochrome P450 2C9 = Cytochrome P450 2C9 (Homo sapiens, UniProt P11712); test: Inhibition of CYP2C9 (unknown origin); assay type: ADME
# Cytochrome P450 2C19 = Cytochrome P450 2C19 (Homo sapiens, UniProt P33261); test: Inhibition of CYP2C19 (unknown origin); assay type: ADME
# Cytochrome P450 2D6 = Cytochrome P450 2D6 (Homo sapiens, UniProt P10635); test: Inhibition of CYP2D6 (unknown origin); assay type: ADME
# Cytochrome P450 3A4 = Cytochrome P450 3A4 (Homo sapiens, UniProt P08684); test: Inhibition of CYP3A4 (unknown origin); assay type: ADME
# [16] = Half life in Sprague-Dawley rat at 2 mg/kg, iv; assay type: ADME, organism-based; conditions: in vivo
# [17] = Cmax in Sprague-Dawley rat at 2 mg/kg, iv; assay type: ADME, organism-based; conditions: in vivo
# [18] = AUCt in Sprague-Dawley rat at 2 mg/kg, iv; assay type: ADME, organism-based; conditions: in vivo
# [19] = AUCinfinity in Sprague-Dawley rat at 2 mg/kg, iv; assay type: ADME, organism-based; conditions: in vivo
# [20] = Volume of distribution in Sprague-Dawley rat at 2 mg/kg, iv; assay type: ADME, organism-based; conditions: in vivo
# [21] = Clearance in Sprague-Dawley rat at 2 mg/kg, iv; assay type: ADME, organism-based; conditions: in vivo
# [22] = test system: Human immunodeficiency virus 1; test: Potency index, ratio of (E)-3-[3,5-dimethyl-4-[2-[4-[(4-methylsulfonylpiperazin-1-yl)methyl]anilino]pyrimidin-4-yl]oxy-phenyl]prop-2-enenitrile EC50 to test compound EC50 for antiviral activity against HIV1 harboring K103 N mutant; assay type: functional
# [23] = test system: Human immunodeficiency virus 1; test: Potency index, ratio of nevirapine EC50 to test compound EC50 for antiviral activity against HIV1 harboring K103 N mutant; assay type: functional
# [24] = test system: Human immunodeficiency virus 1; test: Potency index, ratio of etravirine EC50 to test compound EC50 for antiviral activity against HIV1 harboring K103 N mutant; assay type: functional
# [25] = test system: Human immunodeficiency virus 1; test: Potency index, ratio of efavirenz EC50 to test compound EC50 for antiviral activity against HIV1 harboring K103 N mutant; assay type: functional
# [26] = test system: Human immunodeficiency virus 1; test: Potency index, ratio of etravirine EC50 to test compound EC50 for antiviral activity against HIV1 harboring E138K mutant; assay type: functional
# [27] = test system: Human immunodeficiency virus 1; test: Potency index, ratio of (E)-3-[3,5-dimethyl-4-[2-[4-[(4-methylsulfonylpiperazin-1-yl)methyl]anilino]pyrimidin-4-yl]oxy-phenyl]prop-2-enenitrile EC50 to test compound EC50 for antiviral activity against HIV1 harboring F227L/V106A double mutant; assay type: functional
# [28] = test system: Human immunodeficiency virus 1; test: Potency index, ratio of efavirenz EC50 to test compound EC50 for antiviral activity against HIV1 harboring F227L/V106A double mutant; assay type: functional
# [29] = test system: Human immunodeficiency virus 1; test: microbe, parasite or virus in culture; conditions: Human immunodeficiency virus 1, IIIB, MT4
# Description: Antiviral activity against HIV1 IIIB infected in MT-4 cells assessed as viral induced cytopathic effect by MTT assay
# [30] = test system: Human immunodeficiency virus 1; test: microbe, parasite or virus in culture; conditions: Human immunodeficiency virus 1, RES056, MT4
# Description: Antiviral activity against HIV1 RES056 infected in MT-4 cells assessed as viral induced cytopathic effect by MTT assay
# Cytochrome P450 3A4, sequence (P08684 whole entry): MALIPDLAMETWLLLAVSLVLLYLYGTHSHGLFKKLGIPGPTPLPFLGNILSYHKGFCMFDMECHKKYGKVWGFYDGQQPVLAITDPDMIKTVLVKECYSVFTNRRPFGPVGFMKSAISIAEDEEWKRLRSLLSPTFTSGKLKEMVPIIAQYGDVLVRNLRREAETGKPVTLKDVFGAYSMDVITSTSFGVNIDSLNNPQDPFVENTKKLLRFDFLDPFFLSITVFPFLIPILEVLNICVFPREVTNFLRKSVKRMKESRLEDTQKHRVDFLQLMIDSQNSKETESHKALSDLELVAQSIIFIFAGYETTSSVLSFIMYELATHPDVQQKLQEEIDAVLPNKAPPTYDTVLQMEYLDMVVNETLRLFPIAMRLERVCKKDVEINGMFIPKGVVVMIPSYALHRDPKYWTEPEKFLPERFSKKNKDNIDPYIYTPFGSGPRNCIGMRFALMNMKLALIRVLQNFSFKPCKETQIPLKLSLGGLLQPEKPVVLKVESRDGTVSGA
# Cytochrome P450 2D6, sequence (P10635 whole entry): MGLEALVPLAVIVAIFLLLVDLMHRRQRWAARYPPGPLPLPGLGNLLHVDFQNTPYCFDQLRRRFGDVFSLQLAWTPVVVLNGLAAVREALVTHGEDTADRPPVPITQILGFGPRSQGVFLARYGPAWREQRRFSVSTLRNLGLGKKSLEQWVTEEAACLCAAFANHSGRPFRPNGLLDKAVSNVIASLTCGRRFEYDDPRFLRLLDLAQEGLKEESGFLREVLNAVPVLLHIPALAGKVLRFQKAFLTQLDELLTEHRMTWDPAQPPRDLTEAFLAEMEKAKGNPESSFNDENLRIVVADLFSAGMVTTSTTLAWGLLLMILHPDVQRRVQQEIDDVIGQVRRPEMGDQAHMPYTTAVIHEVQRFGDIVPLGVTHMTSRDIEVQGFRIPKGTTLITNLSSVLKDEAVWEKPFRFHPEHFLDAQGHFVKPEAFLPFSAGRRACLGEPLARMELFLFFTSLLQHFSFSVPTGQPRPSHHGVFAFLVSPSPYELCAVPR
# Cytochrome P450 2C19, sequence (P33261 whole entry): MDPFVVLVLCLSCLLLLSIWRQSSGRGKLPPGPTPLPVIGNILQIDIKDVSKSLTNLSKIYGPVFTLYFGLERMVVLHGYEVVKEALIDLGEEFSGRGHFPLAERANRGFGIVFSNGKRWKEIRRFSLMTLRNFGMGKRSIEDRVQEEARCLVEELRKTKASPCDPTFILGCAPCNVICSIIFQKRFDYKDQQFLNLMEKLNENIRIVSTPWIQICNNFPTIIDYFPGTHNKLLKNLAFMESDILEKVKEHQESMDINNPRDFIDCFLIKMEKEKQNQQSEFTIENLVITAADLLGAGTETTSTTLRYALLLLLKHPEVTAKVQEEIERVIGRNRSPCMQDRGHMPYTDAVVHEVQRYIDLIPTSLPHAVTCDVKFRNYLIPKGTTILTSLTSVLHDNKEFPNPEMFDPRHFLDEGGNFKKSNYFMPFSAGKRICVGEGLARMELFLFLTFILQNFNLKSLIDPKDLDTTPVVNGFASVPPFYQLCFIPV
# Cytochrome P450 2C9, sequence (P11712 whole entry): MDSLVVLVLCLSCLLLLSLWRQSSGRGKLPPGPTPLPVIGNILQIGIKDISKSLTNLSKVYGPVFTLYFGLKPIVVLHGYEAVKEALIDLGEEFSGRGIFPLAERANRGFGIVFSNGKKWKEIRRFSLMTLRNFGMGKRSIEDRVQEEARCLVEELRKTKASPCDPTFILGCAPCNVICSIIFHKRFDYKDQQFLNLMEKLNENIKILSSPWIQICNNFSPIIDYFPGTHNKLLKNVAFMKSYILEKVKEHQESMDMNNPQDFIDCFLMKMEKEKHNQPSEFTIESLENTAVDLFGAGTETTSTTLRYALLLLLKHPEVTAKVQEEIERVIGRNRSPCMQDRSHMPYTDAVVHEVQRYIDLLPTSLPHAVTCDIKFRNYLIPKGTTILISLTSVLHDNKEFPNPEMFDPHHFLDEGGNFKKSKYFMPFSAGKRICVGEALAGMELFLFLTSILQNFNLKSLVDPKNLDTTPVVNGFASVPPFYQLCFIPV
compound,measurement,setting,value
Cc1cc(/C=C/C#N)cc(C)c1Oc1ccnc(Nc2ccc(N3CCS(=O)(=O)CC3)c(F)c2)n1,CC50,[1],15800 nM
same,selectivity ratio,[2],15500
same,selectivity ratio,[3],86
same,Ratio EC50,[4],32
same,Ratio EC50,[5],2.7
same,Ratio EC50,[6],190
same,Ratio EC50,[7],3.3
same,Ratio EC50,[8],3.7
same,EC50,[9],5 nM
same,EC50,[10],1 nM
same,EC50,[11],8 nM
same,EC50,[12],1170 nM
same,EC50,[13],6 nM
same,EC50,[14],24 nM
same,IC50,[15],23 nM
same,IC50,Cytochrome P450 1A2,21200 nM
same,IC50,Cytochrome P450 2C9,5570 nM
same,IC50,Cytochrome P450 2C19,5280 nM
same,IC50,Cytochrome P450 2D6,14800 nM
same,IC50,Cytochrome P450 3A4,> 100000 nM
same,half-life,[16],6.59 h
same,Cmax,[17],390 ng/mL
same,AUC(0-t),[18],297 ng·h/mL
same,AUC(0-inf),[19],316 ng·h/mL
same,Vd,[20],60.1 L/kg
same,clearance,[21],106 mL/min/kg
same,Ratio EC50,[22],3.4
same,Ratio EC50,[23],5490
same,Ratio EC50,[24],3.9
same,Ratio EC50,[25],10.9
same,Ratio EC50,[26],3.1
same,Ratio EC50,[27],10
same,Ratio EC50,[28],10
same,EC50,[29],1 nM
same,EC50,[30],180 nM

# Source: ChEMBL document CHEMBL5620408, “Discovery of novel diarypyrimidine derivatives bearing six-membered non-aromatic heterocycles as potent HIV-1 NNRTIs with improved anti-resistance and drug-like profiles” (Eur J Med Chem, 2023)
